According to PubChem BioAssay (NCI):
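A five-concentration, 48-hour dose response in 96-well plates underlies each endpoint, interpolated linearly between surrounding concentrations. GI50 = concentration required for 50% inhibition of growth. The concentration for full growth arrest is given as TGI.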

Columns and labels:
Assay in all cases: growth of human tumour cells (NCI), 48 h
[1] = test system: NCI-H460 lung
[2] = test system: ACHN renal
[3] = test system: HOP-92 NSCLC
[4] = test system: IGROV1 ovarian
[5] = test system: MOLT-4 leukemia
[6] = test system: SW-620 colon
[7] = test system: EKVX NSCLC
[8] = test system: UACC-62 melanoma
[9] = test system: 786-0 renal
[10] = test system: COLO 205 colon
[11] = test system: OVCAR-4 ovarian
[12] = test system: MDA-MB-435
[13] = test system: SR leukemia
[14] = test system: CAKI-1 renal
[15] = test system: SK-OV-3 ovarian
[16] = test system: NCI-H226 lung
[17] = test system: OVCAR-5 ovarian
[18] = test system: OVCAR-3 ovarian
[19] = test system: HL-60(TB) leukemia
[20] = test system: LOX IMVI melanoma
[21] = test system: SF-268 CNS
[22] = test system: SF-295 CNS
[23] = test system: CCRF-CEM leukemia
[24] = test system: A498 renal
[25] = test system: MALME-3M melanoma
[26] = test system: T-47D breast
[27] = test system: HS 578T breast
[28] = test system: SNB-19 CNS
[29] = test system: HCT-116 colon
[30] = test system: PC-3 prostate
[31] = test system: SF-539 CNS
[32] = test system: OVCAR-8 ovarian
[33] = test system: RXF 393 renal
[34] = test system: HCC-2998 colon
[35] = test system: HOP-62 NSCLC
[36] = test system: A549 NSCLC
[37] = test system: SNB-75 CNS
[38] = test system: K-562 leukemia
[39] = test system: NCI-H23 lung
[40] = test system: NCI/ADR-RES ovarian
[41] = test system: SK-MEL-5 melanoma
[42] = test system: KM12 colon
[43] = test system: HT29 colon
[44] = test system: DU-145 prostate
[45] = test system: UACC-257 melanoma
[46] = test system: U251 CNS
[47] = test system: HCT-15 colon
[48] = test system: SK-MEL-28 melanoma
[49] = test system: MCF7 breast
[50] = test system: SN12C renal
[51] = test system: NCI-H522 lung
[52] = test system: TK-10 renal
[53] = test system: M14 melanoma
[54] = test system: SK-MEL-2 melanoma
[55] = test system: UO-31 renal
[56] = test system: BT-549 breast
[57] = test system: MDA-MB-231 breast
[58] = test system: RPMI-8226 leukemia

O=S1CCN(Cc2ccc(-c3ccc4ncnc(Nc5ccc(OCc6ccccc6)c(F)c5)c4c3)o2)CC1
GI50 [1]: 7.91 µM | TGI [1]: > 25 µM | GI50 [2]: 0.757 µM | TGI [2]: > 25 µM | GI50 [3]: 3.76 µM | TGI [3]: 17.7 µM | GI50 [4]: 1.29 µM | TGI [4]: > 25 µM | GI50 [5]: 8.76 µM | TGI [5]: > 25 µM | GI50 [6]: 10.8 µM | TGI [6]: > 25 µM | GI50 [7]: 0.212 µM | TGI [7]: > 25 µM | GI50 [8]: 5.1 µM | TGI [8]: 16 µM | GI50 [9]: 6.59 µM | TGI [9]: 18.6 µM | GI50 [10]: 4.42 µM | TGI [10]: 10.6 µM | GI50 [11]: 5.75 µM | TGI [11]: > 25 µM | GI50 [12]: 7.21 µM | TGI [12]: > 24.2 µM | GI50 [13]: 9.29 µM | TGI [13]: > 25 µM | GI50 [14]: 0.394 µM | TGI [14]: > 25 µM | GI50 [15]: 0.0713 µM | TGI [15]: 0.226 µM | GI50 [16]: 5.61 µM | TGI [16]: 19.2 µM | GI50 [17]: 13.9 µM | TGI [17]: > 25 µM | GI50 [18]: 7.93 µM | TGI [18]: > 25 µM | GI50 [19]: 8.32 µM | TGI [19]: 18.6 µM | GI50 [20]: 6.39 µM | TGI [20]: > 23.4 µM | GI50 [21]: 17.8 µM | TGI [21]: > 25 µM | GI50 [22]: 7.63 µM | TGI [22]: > 22.1 µM | GI50 [23]: 8.82 µM | TGI [23]: > 25 µM | GI50 [24]: 3.68 µM | TGI [24]: 21.6 µM | GI50 [25]: 7.08 µM | TGI [25]: > 22.6 µM | GI50 [26]: 3.22 µM | TGI [26]: > 19.2 µM | GI50 [27]: 8.89 µM | TGI [27]: > 25 µM | GI50 [28]: 23.4 µM | TGI [28]: > 25 µM | GI50 [29]: 9.96 µM | TGI [29]: > 25 µM | GI50 [30]: 9.98 µM | TGI [30]: > 25 µM | GI50 [31]: 5.84 µM | TGI [31]: 15.1 µM | GI50 [32]: 11.4 µM | TGI [32]: > 25 µM | GI50 [33]: 4.45 µM | TGI [33]: 13.2 µM | GI50 [34]: 9.93 µM | TGI [34]: > 25 µM | GI50 [35]: 13.8 µM | TGI [35]: > 25 µM | GI50 [36]: 7.55 µM | TGI [36]: > 25 µM | GI50 [37]: > 13.1 µM | TGI [37]: > 25 µM | GI50 [38]: 11.9 µM | TGI [38]: > 25 µM | GI50 [39]: 11.3 µM | TGI [39]: > 25 µM | GI50 [40]: 7.36 µM | TGI [40]: > 25 µM | GI50 [41]: 3.44 µM | TGI [41]: 7 µM | GI50 [42]: 10.1 µM | TGI [42]: > 25 µM | GI50 [43]: 5.21 µM | TGI [43]: > 25 µM | GI50 [44]: 4.56 µM | TGI [44]: > 25 µM | GI50 [45]: 6.66 µM | TGI [45]: > 25 µM | GI50 [46]: 13.9 µM | TGI [46]: > 25 µM | GI50 [47]: 8.13 µM | TGI [47]: > 25 µM | GI50 [48]: 6.8 µM | TGI [48]: > 20.5 µM | GI50 [49]: 6.89 µM | TGI [49]: > 16.5 µM | GI50 [50]: 8.07 µM | TGI [50]: > 25 µM | GI50 [51]: 0.984 µM | TGI [51]: > 20.1 µM | GI50 [52]: 0.232 µM | TGI [52]: > 25 µM | GI50 [53]: 6.26 µM | TGI [53]: > 21.6 µM | GI50 [54]: 5.46 µM | TGI [54]: 12.2 µM | GI50 [55]: 4.85 µM | TGI [55]: > 25 µM | GI50 [56]: 7.88 µM | TGI [56]: > 22.8 µM | GI50 [57]: 7.07 µM | TGI [57]: > 23.7 µM | GI50 [58]: 8.71 µM | TGI [58]: > 25 µM

Cc1cc(N2CCN(C)CC2)nc(N(CCNc2ccnc3cc(Cl)ccc23)Cc2ccco2)n1
GI50 [1]: 3.52 µM | TGI [1]: 11.8 µM | GI50 [2]: 5.08 µM | TGI [2]: 17.5 µM | GI50 [3]: 3.1 µM | TGI [3]: 14.9 µM | GI50 [4]: 2.91 µM | TGI [4]: 12.2 µM | GI50 [5]: 2.8 µM | TGI [5]: 10.9 µM | GI50 [6]: 3.04 µM | TGI [6]: 12.4 µM | GI50 [7]: 5.58 µM | TGI [7]: 19.7 µM | GI50 [8]: 2.02 µM | TGI [8]: 4.01 µM | GI50 [9]: 1.93 µM | TGI [9]: 4.83 µM | GI50 [10]: 1.88 µM | TGI [10]: 5.18 µM | GI50 [11]: 4.91 µM | TGI [11]: 18.2 µM | GI50 [12]: 1.62 µM | TGI [12]: 3.39 µM | GI50 [13]: 2.09 µM | TGI [13]: 5.23 µM | GI50 [15]: 10.4 µM | TGI [15]: 22.1 µM | GI50 [16]: 19.6 µM | TGI [16]: 37.9 µM | GI50 [17]: 5.89 µM | TGI [17]: 19.4 µM | GI50 [18]: 2.62 µM | TGI [18]: 9.95 µM | GI50 [19]: 2.25 µM | TGI [19]: 5.97 µM | GI50 [20]: 1.77 µM | TGI [20]: 3.56 µM | GI50 [21]: 5.82 µM | TGI [21]: 20.3 µM | GI50 [22]: 1.8 µM | TGI [22]: 3.79 µM | GI50 [23]: 3.37 µM | TGI [23]: 10.2 µM | GI50 [24]: 4.79 µM | TGI [24]: 17.3 µM | GI50 [25]: 1.94 µM | TGI [25]: 3.71 µM | GI50 [26]: 2.07 µM | TGI [26]: 6.41 µM | GI50 [27]: 4.42 µM | TGI [27]: 35.7 µM | GI50 [28]: 4.92 µM | TGI [28]: 16.5 µM | GI50 [29]: 2.6 µM | TGI [29]: 10.4 µM | GI50 [30]: 3.7 µM | TGI [30]: 13.8 µM | GI50 [31]: 1.68 µM | TGI [31]: 3.25 µM | GI50 [32]: 5.33 µM | TGI [32]: 19.8 µM | GI50 [33]: 1.82 µM | TGI [33]: 4.88 µM | GI50 [34]: 2.65 µM | TGI [34]: 11.1 µM | GI50 [35]: 2.63 µM | TGI [35]: 9.73 µM | GI50 [36]: 4.1 µM | TGI [36]: 14.6 µM | GI50 [37]: 4.1 µM | TGI [37]: 19.6 µM | GI50 [38]: 1.59 µM | TGI [38]: 4.78 µM | GI50 [39]: 6.26 µM | TGI [39]: 21.4 µM | GI50 [40]: 3.1 µM | TGI [40]: 14.8 µM | GI50 [41]: 1.77 µM | TGI [41]: 3.24 µM | GI50 [42]: 3.48 µM | TGI [42]: 13.6 µM | GI50 [43]: 2.47 µM | TGI [43]: 10.4 µM | GI50 [44]: 5.94 µM | TGI [44]: 19 µM | GI50 [45]: 2.07 µM | TGI [45]: 4.25 µM | GI50 [46]: 3.11 µM | TGI [46]: 10.2 µM | GI50 [47]: 2.69 µM | TGI [47]: 10.9 µM | GI50 [48]: 1.71 µM | TGI [48]: 3.31 µM | GI50 [49]: 2.12 µM | TGI [49]: 6.89 µM | GI50 [50]: 8.88 µM | TGI [50]: 21 µM | GI50 [51]: 3.51 µM | TGI [51]: 13.3 µM | GI50 [52]: 2.8 µM | TGI [52]: 11.4 µM | GI50 [53]: 1.78 µM | TGI [53]: 3.3 µM | GI50 [54]: 2.26 µM | TGI [54]: 5.58 µM | GI50 [55]: 2.66 µM | TGI [55]: 11.9 µM | GI50 [56]: 2.94 µM | TGI [56]: 11.8 µM | GI50 [57]: 2.46 µM | TGI [57]: 7.84 µM | GI50 [58]: 2.18 µM | TGI [58]: 5.72 µM
